Laboratory results reported in US7696194B2, “Visual function disorder improving agents” (Senju Pharmaceutical Co., Ltd., priority 2001, dated 2010).
Where a name gives a salt, the structure may show the parent alone.

Tests used:
retinal ganglion cell [1] = test: In vitro extension of nerve axon of cultured retinal ganglion cells (Example 1); type: cell-based, Wistar rat; details: then 10 μM compound added, further 24 hrs
Protocol: Retinal ganglion cells were isolated from an eye ball of a Wistar rat, and cultured in a 48 well plate coated with polylysin (50 μg/mL, Sigma) and merosin (2 μg/mL, GIBCO) at 37° C. under the environment of 5% CO2, 95% air. The number of the cells was about 5000 cells/well. The culture solutions were a culture solution (fetal calf serum-free culture solution) of Neurobasal Medium (GIBCO) supplemented with 50 ng/mL BDNF (human brain-derived neurotrophic factor, Sigma), 50 ng/mL CNTF (rat cilliary neurotrophic factor, Sigma), 5 μM forskolin (Sigma), 1 mM glutamine (Wako) and B27 Supplement (GIBCO; 1 mL/50 mL culture solution), and a culture solution (FCS supplemented culture solution) of the aforementioned fetal calf serum-free culture solution supplemented with 10% fetal calf serum (hereinafter to be also referred to as FCS). After culture for 24 hrs in each culture solution, the group cultured in the FCS supplemented culture solution was divided into 2 groups, and one of them was used as a compound 1 addition group with the addition of 10 μM of compound 1, and the other was used as a compound 1 non-addition group. Similarly, the group cultured in the FCS-free culture solution was divided into a compound 1 addition group and a compound 1 non-addition group. […]

optic nerve cell [2] = test: In vivo optic nerve cell regeneration after optic nerve cut and sciatic nerve autograft (Example 2); parameters: species or system SD rats; details: 120 μmol/L, 5 μL into the vitreous body plus gelatin pieces with 10 μmol/L around the autograft, 6 weeks after grafting
Protocol: The optic nerve of SD rats weighing 220-280 g was cut under pentobarbital sodium (0.4 mg/kg, i.p.) anesthesia. Separately, the sciatic nerve of the optic nerve-severed rat was taken out in about 3-4 cm and autografted at an end of the optic nerve, which had been cut earlier. The compound 1 dissolved to 120 μmol/L was injected into the vitreous body by 5 μL immediately before cutting the optic nerve, and gelatin pieces (3 mm×3 mm; Spongel, Yamanouchi Pharm.) immersed in a 10 μmol/L solution of compound 1 were embedded around the autograft (compound 1 treatment group). For the non-treatment group, physiological saline was used instead of compound 1 for both the injection into the vitreous body and preparation of the gelatin pieces. […] The images of the retinal extension samples observed under a microscope were directly imported into computer images from the fluorescence microscope and the retrogradedly labeled retinal ganglion cells were counted using an image analyzing soft (MacSCOP, MITANI CO.). […]
The ratios (%) of the regenerated cell counts of the non-treatment group and compound 1 treatment group, relative to the optic nerve cell counts of the control, were calculated.

retinal ganglion cell [3] = test: In vitro extension of nerve axon of cultured retinal ganglion cells (Example 3); type: cell-based, Wistar rat
Protocol: Retinal ganglion cells were isolated from an eye ball of a Wistar rat and cultured in a 48 well plate coated with polylysine (50 μg/mL, Sigma) and merosin (2 μg/mL, GIBGO) at 37° C. under the environment of 5% CO2, 95% air. The number of cells was about 5000 cells/well. The culture solution was a culture solution (FCS-free culture solution) of Neurobasal Medium (GIBCO) supplemented with 50 ng/mL BDNF (human brain-derived neurotrophic factor, Sigma), 50 ng/mL CNTF (rat cilliary neurotrophic factor, Sigma), 5 μM forskolin (Sigma), 1 mM glutamine (Wako) and B27 Supplement (GIBCO; 1 mL/50 mL culture solution). After culture for 24 hrs in a culture solution of the aforementioned FCS-free culture solution supplemented with 10% FCS (FCS-supplemented culture solution containing Rho activator) and an FCS-free culture solution, the group cultured in the FCS-free culture solution was divided into 2 groups, and one of them was used as a compound 2 addition group with the addition of 10 μM of compound 2, and the other was used as a compound 2 non-addition group. After further culture for 24 hrs, the level of extension of nerve axon of a retinal ganglion cell was observed under an inverted light microscope. In addition, 1 μM lysophosphatidic acid (LPA), which is a Rho activator, was added to an FCS-free group and axon retraction due to Rho activation was also examined.

optic nerve cell [4] = test: In vivo optic nerve cell regeneration after optic nerve cut and sciatic nerve autograft (Example 4); parameters: species or system SD rats; details: for regenerated optic nerve cell count relative to the control group: control = physiological saline; for regenerated optic nerve cell count relative to the normal group: 5 μL into the vitreous body, 6 weeks after grafting
Protocol: The optic nerve of SD rats weighing 220-280 g was cut under pentobarbital sodium (0.4 mg/kg, i.p.) anesthesia. Separately, the sciatic nerve of the optic nerve-severed rat was taken out in about 3-4 cm and autografted at an end of the optic nerve, which had been cut-earlier. The compound 2 dissolved to 120 μM was injected into the vitreous body by 5 μL immediately before cutting the optic nerve, and gelatin pieces (3 mm×3 mm; Spongel, Yamanouchi Pharm.) immersed in a 10 μM solution of compound 2 were embedded around the autograft (compound 2 treatment group—1). For compound 2 treatment group—2, the compound 2 dissolved to 1.2 mM was injected into the vitreous body by 5 μL and 100 μM of compound 2 was used around the graft. In the control group, physiological saline was used instead of compound 2. During the grafting, attention was paid to avoid damage to the ophthalmic artery, and after grafting, the retinal vascular network was confirmed with a funduscope before breeding under a temperature 23° C.±2, humidity-55±10% environment. The rats were allowed to have a free access to a feed and water. After 6 weeks from the grafting operation, the graft was transversely cut under pentobarbital sodium (0.4 mg/kg, i.p.) anesthesia, and 4-Di-10ASP [4-(4-didecylaminostyryl)-N-methyl-propidium iodide, Sigma, St. Louis, Mo.] crystal (ca. 2 mg) was embedded in the cut area of the graft, thereby to retrogradely label retinal ganglion cells. […]. The images of the retinal extension samples observed under a microscope were directly imported into computer images from the fluorescence microscope and the retrogradely labeled retinal ganglion cells were counted using an image analyzing soft (MacSCOP, MITANI CO.) (FIG. 4). The obtained number of the retrogradely labeled retinal ganglion cells was taken as indicating the regenerated optic nerve cells. Meanwhile, the optic nerve of the rat free of grafting was cut, 4-Di-10ASP crystal (ca. 2 mg) was embedded similarly, and the number of the labeled retinal ganglion cells of the retinal extension sample was taken as the number of optic nerve cells of the normal group.
The ratios (%) of the regenerated optic nerve cell counts of the control group, compound 2 treatment group—1 and compound 2 treatment group—2, relative to the optical nerve cell counts of the control, were calculated.

retinal ganglion cell [5] = test: In vitro axon length of cultured retinal ganglion cells, Calcein AM image analysis (Example 5); type: cell-based, Wistar rats; details: 10 μM final concentration, N=3; for proportion of long neurites cells (axon not less than 100 μm) relative to the whole cells: control group 7%; for proportion of middle neurites cells (axon 21 μm-99 μm) relative to the whole cells: control group 12%
Protocol: In the same manner as in Examples 1 and 3, retinal ganglion cells isolated from the eye ball of 6 to 8-day-old Wistar rats (male-female mixture, SLC) were cultured (cell count: ca. 2000 cells/well). The test compounds (compounds 3-5) were added to the culture solution to the final concentration of 10 μM and respectively used as compound 3 addition group, compound 4 addition group and compound 5 addition group. The control was a test compound non-addition group. The compound 3 (4-[2-(2,3,4,5,6-pentafluorophenyl)acryloyl]cinnamic acid) was synthesized according to the description of Example 8 of JP-A-2000-44513 and used. As compound 4 (ethacrynic acid), one made by Sigma was used and as compound 5 (fasudil hydrochloride), a commercially-available fasudil hydrochloride hydrate injection: “Eril® Injection 30 mg” (produced and sold by Asahi Kasei Corporation) was used.
Using LIVE/DEAD® Viability/Cytotoxicity Kit (L-3224)(Molecular probes) and utilizing the fluorescence characteristics of viable cells by Calcein AM, Calcein AM was uptaken into the retinal ganglion cells and the level of extension of nerve axon of a retinal ganglion cell was observed under a fluorescence microscope. The images of the retinal extension samples observed under a microscope were directly imported into computer images from the fluorescence microscope and the length of the nerve axon was measured using an image analyzing soft (MacSCOP, MITANI CO.). The cells having an axon of not less than 100 μm in length were taken as long neurites cells, the cells having an axon of 21 μm-99 μm were taken as middle neurites cells, and the cells having an axon of not more than 20 μm in length were taken as short neurites cells (no axonal extension). The proportion (%) of the long neurites cells and middle neurites cells relative to the whole cells was calculated for each.

## C[C@@H](N)c1ccc(C(=O)Nc2ccnc3[nH]ccc23)cc1.C[C@@H](N)c1ccc(C(=O)Nc2ccnc3[nH]ccc23)cc1.Cl.Cl.Cl.Cl.O.O.O [compound 1, (R)-(+)-N-(1H-pyrrolo[2,3-b]pyridin-4-yl)-4-(1-aminoethyl)benzamide dihydrochloride 3/2 hydrate]
Retinal ganglion cell [1]; FCS-free culture solution 24 hrs
  level of extension of nerve axon of a retinal ganglion cell: the extension of nerve axon became remarkable
Retinal ganglion cell [1]; FCS-supplemented culture solution 24 hrs, versus non-addition group
  level of extension of nerve axon of a retinal ganglion cell: clearly showed a retinal ganglion cell nerve axon extending action
Optic nerve cell [2]
  regenerated optic nerve cell count relative to the non-treatment group: about 2.4 times
Optic nerve cell [2]; control = rat free of grafting
  regenerated optic nerve cell count relative to the control group: about 12%

## C[C@@H](N)c1ccc(C(=O)Nc2ccnc3[nH]ccc23)cc1.Cl [compound 2, (R)-(+)-N-(1H-pyrrolo[2,3-b]pyridin-4-yl)-4-(1-aminoethyl)benzamide monohydrochloride]
Retinal ganglion cell [3]; FCS-free culture solution 24 hrs, then 10 μM compound added, further 24 hrs
  level of extension of nerve axon of a retinal ganglion cell: clearly showed an action of extending the nerve axon of the retinal ganglion cell
Optic nerve cell [4]; treatment group-1: 120 μM intravitreal, 10 μM around the autograft
  regenerated optic nerve cell count relative to the control group: about 2.3 times
Optic nerve cell [4]; treatment group-1: 120 μM, 10 μM gelatin pieces around the autograft
  regenerated optic nerve cell count relative to the normal group: about 16%
Optic nerve cell [4]; treatment group-2: 1.2 mM intravitreal, 100 μM around the graft
  regenerated optic nerve cell count relative to the control group: about 4 times
Optic nerve cell [4]; treatment group-2: 1.2 mM, 100 μM around the graft
  regenerated optic nerve cell count relative to the normal group: about 28%

## C=C(C(=O)c1ccc(C=CC(=O)O)cc1)c1c(F)c(F)c(F)c(F)c1F [compound 3, 4-[2-(2,3,4,5,6-pentafluorophenyl)acryloyl]cinnamic acid]
Retinal ganglion cell [5]
  proportion of long neurites cells (axon not less than 100 μm) relative to the whole cells: 22%
  proportion of middle neurites cells (axon 21 μm-99 μm) relative to the whole cells: 23%

## C=C(CC)C(=O)c1ccc(OCC(=O)O)c(Cl)c1Cl [compound 4, ethacrynic acid]
Retinal ganglion cell [5]
  proportion of long neurites cells (axon not less than 100 μm) relative to the whole cells: 11%
  proportion of middle neurites cells (axon 21 μm-99 μm) relative to the whole cells: 45%

## O=S(=O)(c1cccc2cnccc12)N1CCCNCC1 [compound 5, fasudil hydrochloride]
Retinal ganglion cell [5]
  proportion of long neurites cells (axon not less than 100 μm) relative to the whole cells: 15%
  proportion of middle neurites cells (axon 21 μm-99 μm) relative to the whole cells: 53%

## lysophosphatidic acid [LPA, reference compound]
Retinal ganglion cell [3]; FCS-free culture solution 44 hrs, then 1 μM LPA, further 4 hrs
  axon retraction due to Rho activation: axon retraction effect
